The values that follow come from the supplement of paper PMC11061612.

What all share (assay): Bliss excess, mean over the matrix (fraction); higher = more synergy
One assay concerns 5637 (Bladder Carcinoma). The gist of the method:
(§1)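 Cell lines grown in DMEM/F12 or RPMI with 10% FBS were plated in 1536-well plates and held 24 hours at 37°C, 5% CO2 before 72 hours of exposure to two-drug dose matrices, with DMSO typically at 0.2%. CellTiter-Glo 2.0 luminescence gave viability, which was converted to inhibition. Vehicle wells were set to 0 and blank wells to 1. Combination Emax is the second-highest inhibition in the matrix, and Bliss excess is the observed combination effect minus the expected EA + EB − EA·EB, where EA and EB are the single-agent effects.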

In the next assay the test system is A101D (Melanoma). The gist of the method: as §1
The test system of assay [1] is A253 (Head and Neck Carcinoma). A digest of the protocol:
as §1

Assay [2] deals with A2780 (Ovarian Carcinoma). A digest of the protocol: as §1
Assay [3] deals with CGTH-W-1 (Thyroid Gland Carcinoma). The gist of the method: as §1
For assay [4], the system named is DU-4475 (Breast Carcinoma). The gist of the method: as §1
The test system of assay [5] is EPLC-272H (Other Solid Carcinomas). A digest of the protocol: as §1
A further assay relates to EW-16 (Ewing's Sarcoma). The gist of the method:
as §1

Assay [6] deals with G-402 (Other Solid Carcinomas). A digest of the protocol: as §1
Assay [7] concerns GA-10 (Burkitt's Lymphoma). The gist of the method: as §1
For assay [8], the system named is JHH-2 (Hepatocellular Carcinoma). A digest of the protocol: as §1
In assay [9] the test system is KYSE-220 (Esophageal Squamous Cell Carcinoma). The gist of the method:
as §1

In assay [10] the test system is LU-165 (Small Cell Lung Carcinoma). The gist of the method: as §1
The test system of assay [11] is NCI-H1651 (Lung Adenocarcinoma). A digest of the protocol:
as §1

Assay [12] concerns NCI-H2087 (Lung Adenocarcinoma). A digest of the protocol:
as §1

The subject of assay [13] is NCI-H2228 (Lung Adenocarcinoma). A digest of the protocol: as §1
The next assay deals with RH-41 (Rhabdomyosarcoma). The gist of the method:
as §1

Assay [14] deals with SW620 (Colorectal Carcinoma). The gist of the method: as §1
Assay [15] deals with UACC-812 (Breast Carcinoma). A digest of the protocol:
as §1

Assay [16] concerns huH-1 (Hepatocellular Carcinoma). The gist of the method: as §1

For the molecule `CN(C)CCCOc1ccc(-c2ccc3ncc4c(c3c2)n(C2CCOCC2)c(=O)n4C)cn1` [AZD0156] + O=C(c1cc(Cc2n[nH]c(=O)c3ccccc23)ccc1F)N1CCN(C(=O)C2CC2)CC1 [Olaparib] (first compound max 3 µM, partner max 3 µM), the Bliss excess in the assay on 5637 (Bladder Carcinoma) amounted to 0.138; with A101D (Melanoma) it was 0.134; in assay [1] it was 0.0536; in [2], 0.198; in [3], 0.0361; in assay [4], 0.117. Besides, the Bliss excess in assay [5] was -0.0122; with EW-16 (Ewing's Sarcoma) it was 0.0975; in [6] it was 0.0571; in assay [7], 0.131; in assay [8] it was 0.0203; in assay [9], 0.191. The Bliss excess was 0.0093 in assay [10]; 0.132 in assay [11]; -0.043 in [12]; 0.0272 in assay [13]; 0.0128 in the assay with RH-41 (Rhabdomyosarcoma); 0.0953 in assay [14]. For the same molecule, the figures for the Bliss excess in [15] and in [16] were -0.113 and -0.0726, respectively.
Consider `C=CCn1c(=O)c2cnc(Nc3ccc(N4CCN(C)CC4)cc3)nc2n1-c1cccc(C(C)(C)O)n1` [AZD1775] + C1CN(CCC1(C(=O)N[C@@H](CCO)C2=CC=C(C=C2)Cl)N)C3=NC=NC4=C3C=CN4 [Capivasertib] (first compound max 3 µM, partner max 3 µM), for which the Bliss excess in the assay with 5637 (Bladder Carcinoma) is 0.0064; in the assay on A101D (Melanoma), 0.0152; in [1], 0.0248; in [2], 0.0361; in assay [3], -0.0278; in assay [4], 0.0203. Moreover, the Bliss excess in assay [5] was -0.0011; in the assay on EW-16 (Ewing's Sarcoma) it was -0.0481; in assay [6], -0.0346; in assay [7], 0.0431; in assay [8] it was -0.122; in assay [9] it was -0.0206. Besides, the Bliss excess in assay [10] is -0.117; in [11], -0.0367; in assay [12] it was -0.0287; in assay [13], -0.0181; with RH-41 (Rhabdomyosarcoma), -0.0387; in assay [14], -0.0402. For the same molecule, the Bliss excess was -0.0007 in [15] and -0.0242 in assay [16].
Take `C=CCn1c(=O)c2cnc(Nc3ccc(N4CCN(C)CC4)cc3)nc2n1-c1cccc(C(C)(C)O)n1` [AZD1775] + C[C@@H]1COCCN1C2=NC(=NC(=C2)C3(CC3)[S@](=N)(=O)C)C4=C5C=CNC5=NC=C4 [AZD6738] (first compound max 1 µM, partner max 10 µM): the Bliss excess in the assay on 5637 (Bladder Carcinoma) is 0.007; with A101D (Melanoma), -0.0089; in assay [1] it was 0.0764; in assay [2], 0.0221; in assay [3], 0.0368; in assay [4] it was 0.0549. In addition, the Bliss excess in [5] is 0.0036; in the assay with EW-16 (Ewing's Sarcoma), 0.0132; in assay [6], -0.0458; in assay [7], 0.0096; in assay [8], -0.0817; in assay [9], 0.0242. The Bliss excess in assay [10] was -0.0127; in [11], -0.0105; in [12], -0.0317; in assay [13], -0.0399; with RH-41 (Rhabdomyosarcoma), 0.0493; in [14] it was 0.0144. Further, the Bliss excess in assay [15] was determined as 0.0176; in [16], 0.019.
Regarding `C=CCn1c(=O)c2cnc(Nc3ccc(N4CCN(C)CC4)cc3)nc2n1-c1cccc(C(C)(C)O)n1` [AZD1775] + O=C(c1cc(Cc2n[nH]c(=O)c3ccccc23)ccc1F)N1CCN(C(=O)C2CC2)CC1 [Olaparib] (first compound max 1 µM, partner max 10 µM), the Bliss excess with 5637 (Bladder Carcinoma) is -0.0551; with A101D (Melanoma), -0.0542; in [1], 0.0364; in assay [2] it was -0.0256; in [3], -0.0222; in assay [4] it was 0.0395. In addition, the Bliss excess in assay [5] is 0.0169; in the assay with EW-16 (Ewing's Sarcoma), -0.0129; in assay [6], -0.0761; in assay [7], -0.0462; in assay [8], -0.0609; in [9], -0.0428. Also, the Bliss excess was -0.103 in [10]; -0.0869 in assay [11]; -0.0212 in assay [12]; 0.0107 in [13]; -0.0484 in the assay on RH-41 (Rhabdomyosarcoma); -0.0395 in assay [14]. Also, the Bliss excess in assay [15] was -0.023; in assay [16], -0.0118.
On to `CCN(CCO)CCCOc1ccc2c(Nc3cc(CC(=O)Nc4cccc(F)c4)[nH]n3)ncnc2c1` [AZD2811] + C=CCn1c(=O)c2cnc(Nc3ccc(N4CCN(C)CC4)cc3)nc2n1-c1cccc(C(C)(C)O)n1 [AZD1775] (first compound max 1 µM, partner max 1 µM), for which the Bliss excess was -0.0232 in the assay with 5637 (Bladder Carcinoma); -0.0166 with A101D (Melanoma); 0.0566 in assay [1]; 0.088 in [2]; -0.0014 in [3]; 0.0523 in assay [4]. The Bliss excess in assay [5] was -0.0341; in the assay on EW-16 (Ewing's Sarcoma), -0.0134; in assay [6], -0.0106; in assay [7] it was 0.0303; in [8] it was 0.0198; in assay [9], -0.0225. Besides, the Bliss excess in [10] is -0.0603; in [11], -0.0268; in assay [12] it was -0.0831; in assay [13] it was 0.0112; in the assay with RH-41 (Rhabdomyosarcoma), 0.0118; in assay [14], -0.0367. Also, the Bliss excess in assay [15] was -0.0352; in assay [16], -0.0176.
As for `CCN(CCO)CCCOc1ccc2c(Nc3cc(CC(=O)Nc4cccc(F)c4)[nH]n3)ncnc2c1` [AZD2811] + C[C@@H]1COCCN1C2=NC(=NC(=C2)C3(CC3)[S@](=N)(=O)C)C4=C5C=CNC5=NC=C4 [AZD6738] (first compound max 1 µM, 7x7, partner max 10 µM), the Bliss excess in the assay on 5637 (Bladder Carcinoma) was -0.0712; in the assay with A101D (Melanoma), -0.0414; in [1], -0.0471; in assay [2] it was -0.0619; in assay [3] it was -0.0461; in assay [4], 0.0045. Besides, the Bliss excess is 0.0137 in [5]; -0.018 in the assay on EW-16 (Ewing's Sarcoma); -0.0703 in [6]; -0.057 in [7]; -0.0196 in assay [8]; -0.0541 in assay [9]. Also, the Bliss excess in assay [10] was -0.0637; in assay [11], -0.0555; in [12], -0.0712; in assay [13] it was -0.0184; in the assay on RH-41 (Rhabdomyosarcoma) it was -0.0477; in assay [14], -0.0451. Also, the Bliss excess in assay [15] is -0.0303; in assay [16], -0.0294.
With `CCN(CCO)CCCOc1ccc2c(Nc3cc(CC(=O)Nc4cccc(F)c4)[nH]n3)ncnc2c1` [AZD2811] + O=C(c1cc(Cc2n[nH]c(=O)c3ccccc23)ccc1F)N1CCN(C(=O)C2CC2)CC1 [Olaparib] (first compound max 1 µM, 7x7, partner max 10 µM), the Bliss excess with 5637 (Bladder Carcinoma) is -0.0349; with A101D (Melanoma), -0.0005; in [1], 0.0485; in [2] it was 0.0453; in assay [3], 0.008; in [4] it was 0.0213. Besides, the Bliss excess in assay [5] was 0.0042; in the assay on EW-16 (Ewing's Sarcoma), 0.0661; in [6] it was -0.0281; in assay [7], -0.0469; in [8] it was -0.0748; in [9] it was 0.01. For the same molecule, the Bliss excess is -0.0454 in assay [10]; 0.0136 in assay [11]; 0.0128 in [12]; -0.021 in assay [13]; 0.0053 with RH-41 (Rhabdomyosarcoma); 0.0318 in [14]. Also, the results for the Bliss excess in assay [15] and in assay [16] were 0.0076 and -0.0014, respectively.
